In PMC12074917, “Molecular pharmacokinetic mechanism of JBP485 against aristolochic acid I (AAI) -induced nephrotoxicity” (Frontiers in Pharmacology, 2025):

Assays:
[1] = system: AAI-induced nephrotoxicity in rats; assay: Toxicity study in rats (AAI-induced nephrotoxicity, AAN): histology, biochemical indicators, oxidative stress markers, Western blotting of kidney; assay type: in vivo, rat
Procedure: For the assessment of toxicity, AAI was suspended in olive oil and JBP485 was dissolved in saline. Rats were randomly divided into the following four groups (n = 5 per group): A control group, which was administered saline intraperitoneally (i.p.) and olive oil orally (p.o.); a JBP485-only group, administered JBP485 i. p. at the dose of 50 mg/kg and olive oil p. o.; an AAI-only group, in which the rats were administered AAI p. o. at the dose of 20 mg/kg and saline i. p.; and a JBP485 + AAI group, where the animals were given AAI p. o. at the dose of 20 mg/kg and JBP485 i. p. at the dose of 50 mg/kg. JBP485 was intraperitoneally administered 2 days before AAI treatment. On day 3 and 30 min after AAI administration, rats were given saline i. p. or JBP485 (50 mg/kg) once daily for 7 days. On day 10, the rats were euthanized and blood, urine, and kidneys were collected for subsequent assays.
Indoxyl sulfate levels in plasma and urine of rats were determined by liquid chromatography-tandem mass spectrometry (LC–MS/MS) (API 3200; Applied Biosystems, Foster City, CA, United States) according to our previous study ([Guo et al., 2013]).
The levels of BUN and CRE in rat plasma were detected following the instructions of the Nanjing Jiancheng Institute of Biotechnology (Nanjing, China). Samples and reagents were added according to the instructions of the kit and reactions were carried out under the specified conditions. Absorbance was measured at 520 nm and 546 nm, respectively, and the quantities were calculated based on the corresponding formula.
For the extraction of total protein, 100 mg of fresh kidney tissue was placed in 1 mL of RIPA buffer containing protease inhibitor, phosphatase inhibitor, and PMSF, cut into small pieces with ophthalmic scissors, homogenized, and placed at 4°C to fully lyse for 20 min, with vortexing every 5 min. Following centrifugation at 12,000 rpm for 20 min at 4°C, the protein concentration in the supernatant was determined using a BCA protein quantification kit. The protein concentrations of all the samples were then adjusted to the lowest protein concentration measured. Subsequently, an appropriate amount of 5× loading buffer was added according to the volume, and the samples were placed in boiling water for 10 min. Equal amounts of protein (40 μg) were separated by SDS–PAGE at constant current (120 mA), transferred to a PVDF membrane by wet transfer, blocked in 5% non-fat dry milk for 2 h, and incubated overnight with primary antibodies. The next day, the samples were incubated with the corresponding secondary antibodies (goat anti-rabbit IgG [H&L], 1:2000, or goat anti-mouse IgG [H&L], 1:2000) for 2 h at room temperature. The protein bands were developed using enhanced chemiluminescence (ECL, YH0009-1, Nanjing Crane Biopharmaceuticals, Nanjing, China) and Tanon-5200 system (Shanghai Tianneng Technology Company, Shanghai, China) while ImageJ 6.0 software was used for analysis.

hOAT3 = target: T1, hOAT3 (Homo sapiens, UniProt Q8TCC7); assay: Uptake of AAI by hOAT3-transfected HEK293 cells with or without JBP485; assay type: cell-based
T1 construct: expressed in transfected cells; host or cells: HEK293
T1 sequence (Q8TCC7 1-542): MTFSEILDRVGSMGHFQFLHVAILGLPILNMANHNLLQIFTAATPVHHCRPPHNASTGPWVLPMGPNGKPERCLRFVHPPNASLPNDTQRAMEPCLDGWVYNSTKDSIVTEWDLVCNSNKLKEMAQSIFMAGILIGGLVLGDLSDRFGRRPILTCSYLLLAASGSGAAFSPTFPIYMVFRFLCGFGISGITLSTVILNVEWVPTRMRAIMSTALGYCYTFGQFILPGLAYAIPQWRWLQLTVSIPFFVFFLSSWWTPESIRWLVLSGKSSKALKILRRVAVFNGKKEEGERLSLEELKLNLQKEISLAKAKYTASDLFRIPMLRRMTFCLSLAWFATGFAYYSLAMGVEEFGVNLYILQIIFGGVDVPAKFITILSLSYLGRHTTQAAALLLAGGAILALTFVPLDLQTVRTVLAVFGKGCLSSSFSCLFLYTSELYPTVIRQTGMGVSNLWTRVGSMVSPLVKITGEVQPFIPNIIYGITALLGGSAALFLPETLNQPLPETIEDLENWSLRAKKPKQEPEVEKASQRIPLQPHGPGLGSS
Procedure: Uptake experiments with hOAT1/3-HEK293 cells were performed as previously described ([Zhu et al., 2020]). Uptake was initiated by adding transport buffer (1 mL) with AAI (1 μM) and/or JBP485 (500 μM) after the cells were washed twice and incubated with transport buffer at 37°C. Moreover, the concentration-dependent uptake of AAI and the effects of JBP485 on AAI uptake were examined. Uptake was terminated upon the removal of the medium. The cells were washed three times with 1 mL of ice-cold Hanks’ balanced salt solution, lysed with 0.3 mL of 0.1% (v/v) Triton X-100, and then transferred to a polythene tube for quantification by LC-MS/MS. The protein level was measured using the BCA method (Solarbio, Beijing, China) with bovine serum albumin serving as the standard.
The concentrations of the test compounds in plasma, urine, and cell lysates were determined using an Agilent HP1200 liquid chromatography system (Agilent Technology Inc., SC, CA, United States) and an API 3200 triple-quadrupole mass spectrometer (Applied Biosystems, SC, CA, United States). After protein precipitation using acetonitrile, the analyte was separated on a Hypersil BDS C18 column. The mobile phase consisted of acetonitrile and water containing 0.1% (v/v) formic acid (80:20, v/v). The flow rate was 0.4 mL/min. The mass spectrometer was equipped with an electrospray ionization (ESI) source. Data were acquired in positive ion mode and dynamic multiple reaction monitoring (MRM) mode. The ESI source conditions were as follows: ion spray voltage, 5.5 kV; ion source temperature, 600°C; Gas source 1 (GS1, N2) pressure, 50 psi; Gas source 2 (GS2, N2) pressure, 60 psi; curtain gas (CUR) pressure, 12 psi; and collision gas (CAD) pressure, 10 psi. EP and CXP were set at […] for all analytes. The scan range was m/z 359.9→298.1 for AAI and m/z 130.0→71.2 for IS (Internal Standard, metformin). […] Intra- and inter-day precision was lower than 4.5% with reference to relative standard deviation, while accuracy was within ±6.5% in terms of relative error for analytes. Analyst software (version 1.4.1) was used for equipment control and data acquisition and analysis.

[2] = JBP485 50 mg/kg i.p. co-administered with AAI 20 mg/kg p.o.
[3] = JBP485 co-administered with AAI
[4] = JBP485 co-administered with AAI vs AAI alone
[5] = JBP485 treatment with AAI vs AAI alone
[6] = AAI group vs control, Western blot

O=C1N[C@@H](CO)C(=O)N2C[C@H](O)C[C@@H]12 (relative stereo) [JBP485, cyclo-trans-4-L-hydroxyprolyl-L-serine]
AAI-induced weight loss [1, 2]: significantly prevented
renal morphology [1, 2]: markedly improved
expression levels of Bcl-2 and Bax in the kidney ([1]; JBP485-only treatment group): no change
body weight or renal morphology ([1]; JBP485 alone 50 mg/kg i.p.): did not influence
kidney histology (H&E) ([1]; JBP485 alone vs control): no significant difference
AAI effect on Bax expression in the kidney [1, 3]: notably reversed
AAI effect on Bcl-2 expression in the kidney [1, 3]: notably reversed
AAI-induced histopathological effects in the kidney (H&E) [1, 3]: significantly mitigated
kidney weight-to-body weight ratio [1, 4]: reduced
plasma level of BUN [1, 4]: opposite trend
plasma level of CRE [1, 4]: opposite trend
plasma level of indoxyl sulfate [1, 4]: opposite trend
urine level of indoxyl sulfate [1, 4]: opposite trend
protein expressions of Oat1, Oat3, Oct2, P-gp, Mrp2 and Mate1 in the kidney ([1]; JBP485 co-administered with AAI vs AAI alone, Western blot): significantly increased
AAI effect on HO-1 protein level in the kidney [1, 5]: reversed
AAI effect on MDA levels in the kidney [1, 5]: reversed
AAI effect on NQO1 protein level in the kidney [1, 5]: reversed
AAI effect on SOD level in the kidney [1, 5]: reversed
type of inhibition of AAI uptake (hOAT3; hOAT3-HEK293 cells, Km increased, Vmax unchanged): competitive inhibition
IC50 (hOAT3; hOAT3-transfected HEK293 cells, substrate AAI, read-out: IC50 of inhibition of AAI uptake, OAT3): 91 ± 10.3 µM

COc1cccc2c1cc([N+](=O)[O-])c1c(C(=O)O)cc3c(c12)OCO3 [AAI, Aristolochic Acid I]
kidney histology (H&E) ([1]; AAI 20 mg/kg p.o.): showed damage
body weight ([1]; AAI 20 mg/kg p.o. vs control): significantly decreased
kidney weight-to-body weight ratio ([1]; AAI 20 mg/kg p.o. vs control): increase
MDA levels in the kidney ([1]; AAI group vs control): markedly increased
SOD level in the kidney ([1]; AAI group vs control): significantly decreased
plasma level of BUN ([1]; AAI group vs control): significantly higher
plasma level of CRE ([1]; AAI group vs control): significantly higher
plasma level of indoxyl sulfate ([1]; AAI group vs control): significantly higher
urine level of indoxyl sulfate ([1]; AAI group vs control): lower
Bax expression in the kidney [1, 6]: increased
Bcl-2 expression in the kidney [1, 6]: decreased
HO-1 protein level in the kidney [1, 6]: significantly decreased
NQO1 protein level in the kidney [1, 6]: significantly decreased
renal transporter expression (Oat1, Oat3, Oct2, P-gp, Mrp2, Mate1) ([1]; AAI-treated rats, Western blot): downregulation
Km (hOAT3; hOAT3-HEK293 cells, with or without JBP485, Eadie-Hofstee, n = 3): 30.6 ± 1.2 µM
Vmax of AAI uptake (hOAT3; hOAT3-HEK293 cells, with or without JBP485, n = 3): 0.077 ± 0.03 nmol/mg protein/1min
